Non-standard residues stand in square brackets, D forms with d. Residues, ends and D or L forms follow the SMILES beside them.
System: MV-411 cells
Assay: MYB ChIP-seq
Type: cell-based, human
Conditions: 20 µM, 6 h, 3 biological replicates
Description: ChIP was performed as previously described. Briefly, cells were fixed in 1% formalin in phosphate-buffered saline (PBS) for 10 minutes at room temperature. Glycine (125 mM final concentration) and Tris-HCl pH 8 (100 mM final concentration) were added to the cells and cells were washed twice in ice-cold PBS and resuspended in sodium dodecyl sulfate (SDS) lysis buffer (1% SDS, 10 mM EDTA, 50 mM Tris–HCl, pH 8.1). Lysates were sonicated using the Covaris S220 adaptive focused sonicator to obtain 100–500 bp chromatin fragments (Covaris, Woburn, CA). Lysates containing sheared chromatin fragments were resuspended in 0.01% SDS, 1.1% Triton-X100, 1.2 mM EDTA, 16.7 mM Tris–HCl, pH 8.1,167 mM NaCl. Lysates and antibody-coupled beads were incubated over night at 4 °C. […] Libraries were sequenced on the Illumina HiSeq 2500 instruments, with 30 million 2 × 50 bp paired reads.
For ChIP-seq analysis, reads were quality and adapter trimmed using ‘trim_galore’ before aligning to human genome assembly hg19 with bwa mem using the default parameters. Aligned reads with the same start position and orientation were collapsed to a single read before subsequent analysis. Density profiles were created by extending each read to the average library fragment size and then computing density using the BEDTools suite. Enriched regions were discovered using MACS 2.0 and scored against matched input libraries. […]

In the case of `CC[C@@H](C)[C@@H](NC(=O)[C@@H](CCCCN)NC(=O)[C@@H](CCC(=O)O)NC(=O)[C@@H](CC(C)C)NC(=O)[C@@H](CCC(=O)O)NC(=O)[C@@H](CC(C)C)NC(=O)[C@@H](CC(C)C)NC(=O)[C@@H](CC(C)C)NC(=O)[C@@H](CCSC)NC(=O)[C@@H](CO)NC(=O)[C@H](NC(=O)[C@@H](CCC(=O)O)NC(=O)[C@@H](CC(N)=O)NC(=O)[C@@H](CCC(=O)O)NC(=O)[C@@H](CC(C)C)NC(=O)[C@@H](CCCCN)NC(C)=O)[C@H](C)O)C(=O)N[C@H](CCCNC(=N)N)C(=O)N[C@H](CCCCN)C(=O)NCC(=O)NCC(=O)N[C@H](CCCNC(=N)N)C(=O)N[C@H](CCCNC(=N)N)C(=O)N[C@H](CCCNC(=N)N)C(=O)N[C@H](CCC(N)=O)C(=O)N[C@H](CCCNC(=N)N)C(=O)N[C@H](CCCNC(=N)N)C(=O)N[C@H](CCCCN)C(=O)N[C@H](CCCCN)C(=O)N[C@H](CCCNC(=N)N)C(=O)NCC(=O)N[C@H](Cc1ccc(O)cc1)C(N)=O` [MYBMIM] (Ac-[dK][dL][dE][dN][dE][dT][dS][dM][dL][dL][dL][dE][dL][dE][dK][dI][dR][dK]GG[dR][dR][dR][dQ][dR][dR][dK][dK][dR]G[dY]-NH2), the “MYB complexes bound to promoters and enhancers eliminated” value is reported as 2,690.
